Converted amounts (≈) assume the structure as drawn.
Experiments:
[1] = test system: Entercoccus faecalis 2041; experiment: MIC, standard broth micro-dilution assay; assay type: cell-based
Method: (§1) The formula I compounds have in vitro and in vivo activity against Gram-positive pathogenic bacteria. The MIC's were determined using a standard broth micro-dilution assay.

[2] = test system: Entercoccus gallinarum 245; experiment: MIC, standard broth micro-dilution assay; assay type: cell-based
Method: as §1

Row | SMILES | MIC [1] | MIC [2]
1 | CNC(CC(C)C)C(=O)NC1C(=O)NC(CC(N)=O)C(=O)NC2C(=O)NC3C(=O)NC(C(=O)NC(C(=O)O)c4cc(O)cc(O)c4-c4cc3ccc4O)C(OC3CC(C)(N)C(O)C(C)O3)c3ccc(c(Cl)c3)Oc3cc2cc(c3OC2OC(CO)C(O)C(O)C2OC2CC(C)(NCc3c(C)c(C)c(C)c(C)c3C)C(O)C(C)O2)Oc2ccc(cc2Cl)C1O (centres unmarked) [Compound 73] | – | 2 µg/mL (≈ 1.14 µM)
2 | CCCCCC1CCC(c2ccc(CNC3(C)CC(OC4C(Oc5c6cc7cc5Oc5ccc(cc5Cl)C(OC5CC(C)(N)C(O)C(C)O5)C5NC(=O)C(NC(=O)C7NC(=O)C(CC(N)=O)NC(=O)C(NC(=O)C(CC(C)C)NC)C(O)c7ccc(c(Cl)c7)O6)c6ccc(O)c(c6)-c6c(O)cc(O)cc6C(C(=O)O)NC5=O)OC(CO)C(O)C4O)OC(C)C3O)cc2)CC1 (centres unmarked) [Compound 34, 4-[4-pentylcyclohexyl]benzyl] | 8 µg/mL (≈ 4.36 µM) | 4 µg/mL (≈ 2.18 µM)
3 | CN[C@H](CC(C)C)C(=O)N[C@H]1C(=O)N[C@@H](CC(N)=O)C(=O)N[C@H]2C(=O)N[C@H]3C(=O)N[C@H](C(=O)N[C@H](C(=O)O)c4cc(O)cc(O)c4-c4cc3ccc4O)[C@H](O[C@H]3C[C@](C)(N)[C@@H](O)[C@H](C)O3)c3ccc(c(Cl)c3)Oc3cc2cc(c3O[C@@H]2O[C@H](CO)[C@@H](O)[C@H](O)[C@H]2O[C@H]2C[C@](C)(NCc3ccc(-c4cccc(F)c4)cc3)[C@@H](O)[C@H](C)O2)Oc2ccc(cc2Cl)[C@H]1O [Compound 92, 4-[3-fluorophenyl]benzyl] | – | 2 µg/mL (≈ 1.13 µM)
4 | CNC(CC(C)C)C(=O)NC1C(=O)NC(CC(N)=O)C(=O)NC2C(=O)NC3C(=O)NC(C(=O)NC(C(=O)O)c4cc(O)cc(O)c4-c4cc3ccc4O)C(OC3CC(C)(N)C(O)C(C)O3)c3ccc(c(Cl)c3)Oc3cc2cc(c3OC2OC(CO)C(O)C(O)C2OC2CC(C)(NCc3ccc(N4CCOCC4)cc3)C(O)C(C)O2)Oc2ccc(cc2Cl)C1O (centres unmarked) [Compound 147, 4-morpholinobenzyl] | ≤ 0.06 µg/mL | –
5 | CNC(CC(C)C)C(=O)NC1C(=O)NC(CC(N)=O)C(=O)NC2C(=O)NC3C(=O)NC(C(=O)NC(C(=O)O)c4cc(O)cc(O)c4-c4cc3ccc4O)C(OC3CC(C)(N)C(O)C(C)O3)c3ccc(c(Cl)c3)Oc3cc2cc(c3OC2OC(CO)C(O)C(O)C2OC2CC(C)(NCc3ccc([N+](=O)[O-])cc3)C(O)C(C)O2)Oc2ccc(cc2Cl)C1O (centres unmarked) [Compound 78, 4-nitrobenzyl] | ≤ 0.06 µg/mL | –
6 | CCCCCCCCc1ccc(-c2ccc(CNC3(C)CC(OC4C(Oc5c6cc7cc5Oc5ccc(cc5Cl)C(OC5CC(C)(N)C(O)C(C)O5)C5NC(=O)C(NC(=O)C7NC(=O)C(CC(N)=O)NC(=O)C(NC(=O)C(CC(C)C)NC)C(O)c7ccc(c(Cl)c7)O6)c6ccc(O)c(c6)-c6c(O)cc(O)cc6C(C(=O)O)NC5=O)OC(CO)C(O)C4O)OC(C)C3O)cc2)cc1 (centres unmarked) [Compound 21] | – | 8 µg/mL (≈ 4.28 µM)
7 | CNC(CC(C)C)C(=O)NC1C(=O)NC(CC(N)=O)C(=O)NC2C(=O)NC3C(=O)NC(C(=O)NC(C(=O)O)c4cc(O)cc(O)c4-c4cc3ccc4O)C(OC3CC(C)(N)C(O)C(C)O3)c3ccc(c(Cl)c3)Oc3cc2cc(c3OC2OC(CO)C(O)C(O)C2OC2CC(C)(NCc3ccc(-c4ccc(O)cc4)cc3)C(O)C(C)O2)Oc2ccc(cc2Cl)C1O (centres unmarked) [Compound 20, 4-[4-hydroxyphenyl]benzyl] | ≤ 0.06 µg/mL | –
8 | CCOc1cc(CNC2(C)CC(OC3C(Oc4c5cc6cc4Oc4ccc(cc4Cl)C(OC4CC(C)(N)C(O)C(C)O4)C4NC(=O)C(NC(=O)C6NC(=O)C(CC(N)=O)NC(=O)C(NC(=O)C(CC(C)C)NC)C(O)c6ccc(c(Cl)c6)O5)c5ccc(O)c(c5)-c5c(O)cc(O)cc5C(C(=O)O)NC4=O)OC(CO)C(O)C3O)OC(C)C2O)ccc1OCC1CCCCC1 (centres unmarked) [Compound 105, 4-[cyclohexylmethoxy]-3-ethoxybenzyl] | – | 1 µg/mL (≈ 0.544 µM)
9 | CNC(CC(C)C)C(=O)NC1C(=O)NC(CC(N)=O)C(=O)NC2C(=O)NC3C(=O)NC(C(=O)NC(C(=O)O)c4cc(O)cc(O)c4-c4cc3ccc4O)C(OC3CC(C)(N)C(O)C(C)O3)c3ccc(c(Cl)c3)Oc3cc2cc(c3OC2OC(CO)C(O)C(O)C2OC2CC(C)(NCc3ccc(OC(C)=O)c(OC)c3)C(O)C(C)O2)Oc2ccc(cc2Cl)C1O (centres unmarked) [Compound 99, 4-acetoxy-3-methoxybenzyl] | – | 32 µg/mL (≈ 18.1 µM)
10 | CNC(CC(C)C)C(=O)NC1C(=O)NC(CC(N)=O)C(=O)NC2C(=O)NC3C(=O)NC(C(=O)NC(C(=O)O)c4cc(O)cc(O)c4-c4cc3ccc4O)C(OC3CC(C)(N)C(O)C(C)O3)c3ccc(c(Cl)c3)Oc3cc2cc(c3OC2OC(CO)C(O)C(O)C2OC2CC(C)(NCc3ccc(N4CCC(C)CC4)cc3)C(O)C(C)O2)Oc2ccc(cc2Cl)C1O (centres unmarked) [Compound 129, 4-[4-methyl-1-piperidino]benzyl] | ≤ 0.06 µg/mL | –

The next lines start with the values.

Row | MIC [1] | MIC [2] | SMILES
11 | ≤ 0.06 µg/mL | 2 µg/mL (≈ 1.15 µM) | CNC(CC(C)C)C(=O)NC1C(=O)NC(CC(N)=O)C(=O)NC2C(=O)NC3C(=O)NC(C(=O)NC(C(=O)O)c4cc(O)cc(O)c4-c4cc3ccc4O)C(OC3CC(C)(N)C(O)C(C)O3)c3ccc(c(Cl)c3)Oc3cc2cc(c3OC2OC(CO)C(O)C(O)C2OC2CC(C)(NCc3ccc4c(c3)CCCC4)C(O)C(C)O2)Oc2ccc(cc2Cl)C1O (centres unmarked) [Compound 168]
12 | ≤ 0.06 µg/mL | 1 µg/mL (≈ 0.55 µM) | CNC(CC(C)C)C(=O)NC1C(=O)NC(CC(N)=O)C(=O)NC2C(=O)NC3C(=O)NC(C(=O)NC(C(=O)O)c4cc(O)cc(O)c4-c4cc3ccc4O)C(OC3CC(C)(N)C(O)C(C)O3)c3ccc(c(Cl)c3)Oc3cc2cc(c3OC2OC(CO)C(O)C(O)C2OC2CC(C)(NCc3ccc(OCCCc4ccccc4)cc3)C(O)C(C)O2)Oc2ccc(cc2Cl)C1O (centres unmarked) [Compound 223, 4-[3-phenylpropyloxy]benzyl]
13 | ≤ 0.06 µg/mL | 2 µg/mL (≈ 1.14 µM) | CNC(CC(C)C)C(=O)NC1C(=O)NC(CC(N)=O)C(=O)NC2C(=O)NC3C(=O)NC(C(=O)NC(C(=O)O)c4cc(O)cc(O)c4-c4cc3ccc4O)C(OC3CC(C)(N)C(O)C(C)O3)c3ccc(c(Cl)c3)Oc3cc2cc(c3OC2OC(CO)C(O)C(O)C2OC2CC(C)(NCCCCc3ccc(OC)cc3)C(O)C(C)O2)Oc2ccc(cc2Cl)C1O (centres unmarked) [Compound 172, 4-[4-methoxyphenyl]butyl]
14 | – | 16 µg/mL (≈ 9.03 µM) | CNC(CC(C)C)C(=O)NC1C(=O)NC(CC(N)=O)C(=O)NC2C(=O)NC3C(=O)NC(C(=O)NC(C(=O)O)c4cc(O)cc(O)c4-c4cc3ccc4O)C(OC3CC(C)(N)C(O)C(C)O3)c3ccc(c(Cl)c3)Oc3cc2cc(c3OC2OC(CO)C(O)C(O)C2OC2CC(C)(NCc3ccc(OCC(O)CO)cc3)C(O)C(C)O2)Oc2ccc(cc2Cl)C1O (centres unmarked) [Compound 177, 4-[2,3-dihydroxypropoxy]benzyl]
15 | – | 4 µg/mL (≈ 2.24 µM) | CNC(CC(C)C)C(=O)NC1C(=O)NC(CC(N)=O)C(=O)NC2C(=O)NC3C(=O)NC(C(=O)NC(C(=O)O)c4cc(O)cc(O)c4-c4cc3ccc4O)C(OC3CC(C)(N)C(O)C(C)O3)c3ccc(c(Cl)c3)Oc3cc2cc(c3OC2OC(CO)C(O)C(O)C2OC2CC(C)(NCc3ccc(-c4ccc(C)cc4)c(C)c3)C(O)C(C)O2)Oc2ccc(cc2Cl)C1O (centres unmarked) [Compound 225, 4-[4-methylphenyl]-3-methylbenzyl]
16 | – | 8 µg/mL (≈ 4.43 µM) | CNC(CC(C)C)C(=O)NC1C(=O)NC(CC(N)=O)C(=O)NC2C(=O)NC3C(=O)NC(C(=O)NC(C(=O)O)c4cc(O)cc(O)c4-c4cc3ccc4O)C(OC3CC(C)(N)C(O)C(C)O3)c3ccc(c(Cl)c3)Oc3cc2cc(c3OC2OC(CO)C(O)C(O)C2OC2CC(C)(NCc3ccc([S+]([O-])c4ccccc4)cc3)C(O)C(C)O2)Oc2ccc(cc2Cl)C1O (centres unmarked) [Compound 159, 4-[phenylsulfinyl]benzyl]
